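Step 1: Grow cells in 96-well plates. Step 2: Expose to compound for 48 hours at 5 concentrations. Step 3: Interpolate endpoints linearly; if unreached, use highest concentration. GI50 marks 50% less growth. TGI denotes the concentration required for complete inhibition of growth.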
Tests used:
Assay in all cases: growth of human tumour cells (NCI), 48 h
KM12 colon = system: KM12 colon
SNB-75 CNS = system: SNB-75 CNS
BT-549 breast = system: BT-549 breast
TK-10 renal = system: TK-10 renal
MDA-MB-231 breast = system: MDA-MB-231 breast
HCT-15 colon = system: HCT-15 colon
RXF 393 renal = system: RXF 393 renal
SK-MEL-2 melanoma = system: SK-MEL-2 melanoma
EKVX NSCLC = system: EKVX NSCLC
OVCAR-5 ovarian = system: OVCAR-5 ovarian
786-0 renal = system: 786-0 renal
SK-MEL-5 melanoma = system: SK-MEL-5 melanoma
HOP-92 NSCLC = system: HOP-92 NSCLC
A498 renal = system: A498 renal
SK-MEL-28 melanoma = system: SK-MEL-28 melanoma
SW-620 colon = system: SW-620 colon
OVCAR-3 ovarian = system: OVCAR-3 ovarian
LOX IMVI melanoma = system: LOX IMVI melanoma
HT29 colon = system: HT29 colon
SK-OV-3 ovarian = system: SK-OV-3 ovarian
UO-31 renal = system: UO-31 renal
COLO 205 colon = system: COLO 205 colon
NCI-H23 lung = system: NCI-H23 lung
HCT-116 colon = system: HCT-116 colon
SF-295 CNS = system: SF-295 CNS
UACC-257 melanoma = system: UACC-257 melanoma
MALME-3M melanoma = system: MALME-3M melanoma
DU-145 prostate = system: DU-145 prostate
CAKI-1 renal = system: CAKI-1 renal
OVCAR-8 ovarian = system: OVCAR-8 ovarian
UACC-62 melanoma = system: UACC-62 melanoma
OVCAR-4 ovarian = system: OVCAR-4 ovarian
NCI/ADR-RES ovarian = system: NCI/ADR-RES ovarian
ACHN renal = system: ACHN renal
M14 melanoma = system: M14 melanoma
SF-268 CNS = system: SF-268 CNS
HOP-62 NSCLC = system: HOP-62 NSCLC
NCI-H226 lung = system: NCI-H226 lung
SNB-19 CNS = system: SNB-19 CNS
K-562 leukemia = system: K-562 leukemia
NCI-H522 lung = system: NCI-H522 lung
NCI-H460 lung = system: NCI-H460 lung
SN12C renal = system: SN12C renal
SR leukemia = system: SR leukemia
HCC-2998 colon = system: HCC-2998 colon
SF-539 CNS = system: SF-539 CNS
HL-60(TB) leukemia = system: HL-60(TB) leukemia
MOLT-4 leukemia = system: MOLT-4 leukemia
PC-3 prostate = system: PC-3 prostate
HS 578T breast = system: HS 578T breast
U251 CNS = system: U251 CNS
T-47D breast = system: T-47D breast
A549 NSCLC = system: A549 NSCLC
MDA-MB-435 = system: MDA-MB-435

## COc1cc(-c2ccc(=O)oc2C#Cc2ccccc2)cc(OC)c1OC
KM12 colon
  GI50: 34.6 µM
  TGI: > 100 µM
SNB-75 CNS
  GI50: 12.1 µM
  TGI: 32.6 µM
BT-549 breast
  GI50: 19.2 µM
  TGI: 63.4 µM
TK-10 renal
  GI50: 29 µM
  TGI: > 100 µM
MDA-MB-231 breast
  GI50: 12.4 µM
  TGI: 35.8 µM
HCT-15 colon
  GI50: 13.8 µM
  TGI: > 100 µM
RXF 393 renal
  GI50: 0.945 µM
  TGI: 19.9 µM
SK-MEL-2 melanoma
  GI50: 23.2 µM
  TGI: > 100 µM
EKVX NSCLC
  GI50: 83.4 µM
  TGI: > 100 µM
OVCAR-5 ovarian
  GI50: > 100 µM
  TGI: > 100 µM
786-0 renal
  GI50: 32.6 µM
  TGI: > 100 µM
SK-MEL-5 melanoma
  GI50: 3.49 µM
  TGI: > 100 µM
HOP-92 NSCLC
  GI50: 16.1 µM
  TGI: 39.2 µM
A498 renal
  GI50: 30.4 µM
  TGI: 70.6 µM
SK-MEL-28 melanoma
  GI50: 26.7 µM
  TGI: > 100 µM
SW-620 colon
  GI50: 13.3 µM
  TGI: > 100 µM
OVCAR-3 ovarian
  GI50: 36.4 µM
  TGI: > 100 µM
LOX IMVI melanoma
  GI50: 1.57 µM
  TGI: > 100 µM
HT29 colon
  GI50: 16.6 µM
  TGI: > 100 µM
SK-OV-3 ovarian
  GI50: 28.5 µM
  TGI: 92.9 µM
UO-31 renal
  GI50: 9.1 µM
  TGI: > 100 µM
COLO 205 colon
  GI50: 34.1 µM
  TGI: > 100 µM
NCI-H23 lung
  GI50: 36.9 µM
  TGI: > 100 µM
HCT-116 colon
  GI50: 1.66 µM
  TGI: > 100 µM
SF-295 CNS
  GI50: 11.2 µM
  TGI: 35.5 µM
UACC-257 melanoma
  GI50: 56.7 µM
  TGI: > 100 µM
MALME-3M melanoma
  GI50: > 100 µM
  TGI: > 100 µM
DU-145 prostate
  GI50: 28.3 µM
  TGI: > 100 µM
CAKI-1 renal
  GI50: 27.4 µM
  TGI: > 100 µM
OVCAR-8 ovarian
  GI50: 52.5 µM
  TGI: > 100 µM
UACC-62 melanoma
  GI50: 11.6 µM
  TGI: > 100 µM
OVCAR-4 ovarian
  GI50: > 100 µM
  TGI: > 100 µM
NCI/ADR-RES ovarian
  GI50: > 100 µM
  TGI: > 100 µM
ACHN renal
  GI50: 14.8 µM
  TGI: 90.2 µM
M14 melanoma
  GI50: 48.9 µM
  TGI: > 100 µM
SF-268 CNS
  GI50: 12.7 µM
  TGI: > 100 µM
HOP-62 NSCLC
  GI50: 19 µM
  TGI: 66.8 µM
NCI-H226 lung
  GI50: 22.8 µM
  TGI: > 100 µM
SNB-19 CNS
  GI50: 29.9 µM
  TGI: 93.3 µM
K-562 leukemia
  GI50: 86.1 µM
  TGI: > 100 µM
NCI-H522 lung
  GI50: 44.5 µM
  TGI: > 100 µM
NCI-H460 lung
  GI50: > 100 µM
  TGI: > 100 µM
SN12C renal
  GI50: 15.9 µM
  TGI: > 100 µM
SR leukemia
  GI50: 2.4 µM
  TGI: > 100 µM
HCC-2998 colon
  GI50: > 100 µM
  TGI: > 100 µM
SF-539 CNS
  GI50: 12.7 µM
  TGI: > 100 µM
HL-60(TB) leukemia
  GI50: 8.56 µM
  TGI: > 100 µM
MOLT-4 leukemia
  GI50: 13.2 µM
  TGI: > 100 µM
PC-3 prostate
  GI50: > 100 µM
  TGI: > 100 µM
HS 578T breast
  GI50: 6.02 µM
  TGI: 48.4 µM
U251 CNS
  GI50: 8.09 µM
  TGI: 34.4 µM
T-47D breast
  GI50: 45.2 µM
  TGI: > 100 µM
A549 NSCLC
  GI50: 3.22 µM
  TGI: 91.1 µM
MDA-MB-435
  GI50: 14.6 µM
  TGI: > 100 µM

— PubChem BioAssay (NCI)
